From ChEMBL document CHEMBL4177526, “Discovery and structure activity relationship of the first potent cryptosporidium FIKK kinase inhibitor” (Bioorg Med Chem, 2017)

Assays:
[1] = target: Tyrosine-protein kinase BTK (Homo sapiens) (UniProt Q06187); assay: Inhibition of human BTK (2 to 659 residues) assessed as residual activity at 500 nM in presence of 33P-ATP by filter binding assay relative to control
[2] = target: Mitogen-activated protein kinase 3 (Homo sapiens) (UniProt P27361); assay: Inhibition of human ERK1 (2 to 379 residues) assessed as residual activity at 500 nM in presence of 33P-ATP by filter binding assay relative to control
[3] = target: Homeodomain-interacting protein kinase 3 (Homo sapiens) (UniProt Q9H422); assay: Inhibition of human HIPK3 (161 to 562 residues) assessed as residual activity at 500 nM in presence of 33P-ATP by filter binding assay relative to control
[4] = target: Myosin light chain kinase, smooth muscle (Homo sapiens) (UniProt Q15746); assay: Inhibition of human smMLCK (475 to 838 residues) assessed as residual activity at 500 nM in presence of 33P-ATP by filter binding assay relative to control
Chain of Myosin light chain kinase, smooth muscle (Homo sapiens) (Q15746 whole entry, the tested form may be a part): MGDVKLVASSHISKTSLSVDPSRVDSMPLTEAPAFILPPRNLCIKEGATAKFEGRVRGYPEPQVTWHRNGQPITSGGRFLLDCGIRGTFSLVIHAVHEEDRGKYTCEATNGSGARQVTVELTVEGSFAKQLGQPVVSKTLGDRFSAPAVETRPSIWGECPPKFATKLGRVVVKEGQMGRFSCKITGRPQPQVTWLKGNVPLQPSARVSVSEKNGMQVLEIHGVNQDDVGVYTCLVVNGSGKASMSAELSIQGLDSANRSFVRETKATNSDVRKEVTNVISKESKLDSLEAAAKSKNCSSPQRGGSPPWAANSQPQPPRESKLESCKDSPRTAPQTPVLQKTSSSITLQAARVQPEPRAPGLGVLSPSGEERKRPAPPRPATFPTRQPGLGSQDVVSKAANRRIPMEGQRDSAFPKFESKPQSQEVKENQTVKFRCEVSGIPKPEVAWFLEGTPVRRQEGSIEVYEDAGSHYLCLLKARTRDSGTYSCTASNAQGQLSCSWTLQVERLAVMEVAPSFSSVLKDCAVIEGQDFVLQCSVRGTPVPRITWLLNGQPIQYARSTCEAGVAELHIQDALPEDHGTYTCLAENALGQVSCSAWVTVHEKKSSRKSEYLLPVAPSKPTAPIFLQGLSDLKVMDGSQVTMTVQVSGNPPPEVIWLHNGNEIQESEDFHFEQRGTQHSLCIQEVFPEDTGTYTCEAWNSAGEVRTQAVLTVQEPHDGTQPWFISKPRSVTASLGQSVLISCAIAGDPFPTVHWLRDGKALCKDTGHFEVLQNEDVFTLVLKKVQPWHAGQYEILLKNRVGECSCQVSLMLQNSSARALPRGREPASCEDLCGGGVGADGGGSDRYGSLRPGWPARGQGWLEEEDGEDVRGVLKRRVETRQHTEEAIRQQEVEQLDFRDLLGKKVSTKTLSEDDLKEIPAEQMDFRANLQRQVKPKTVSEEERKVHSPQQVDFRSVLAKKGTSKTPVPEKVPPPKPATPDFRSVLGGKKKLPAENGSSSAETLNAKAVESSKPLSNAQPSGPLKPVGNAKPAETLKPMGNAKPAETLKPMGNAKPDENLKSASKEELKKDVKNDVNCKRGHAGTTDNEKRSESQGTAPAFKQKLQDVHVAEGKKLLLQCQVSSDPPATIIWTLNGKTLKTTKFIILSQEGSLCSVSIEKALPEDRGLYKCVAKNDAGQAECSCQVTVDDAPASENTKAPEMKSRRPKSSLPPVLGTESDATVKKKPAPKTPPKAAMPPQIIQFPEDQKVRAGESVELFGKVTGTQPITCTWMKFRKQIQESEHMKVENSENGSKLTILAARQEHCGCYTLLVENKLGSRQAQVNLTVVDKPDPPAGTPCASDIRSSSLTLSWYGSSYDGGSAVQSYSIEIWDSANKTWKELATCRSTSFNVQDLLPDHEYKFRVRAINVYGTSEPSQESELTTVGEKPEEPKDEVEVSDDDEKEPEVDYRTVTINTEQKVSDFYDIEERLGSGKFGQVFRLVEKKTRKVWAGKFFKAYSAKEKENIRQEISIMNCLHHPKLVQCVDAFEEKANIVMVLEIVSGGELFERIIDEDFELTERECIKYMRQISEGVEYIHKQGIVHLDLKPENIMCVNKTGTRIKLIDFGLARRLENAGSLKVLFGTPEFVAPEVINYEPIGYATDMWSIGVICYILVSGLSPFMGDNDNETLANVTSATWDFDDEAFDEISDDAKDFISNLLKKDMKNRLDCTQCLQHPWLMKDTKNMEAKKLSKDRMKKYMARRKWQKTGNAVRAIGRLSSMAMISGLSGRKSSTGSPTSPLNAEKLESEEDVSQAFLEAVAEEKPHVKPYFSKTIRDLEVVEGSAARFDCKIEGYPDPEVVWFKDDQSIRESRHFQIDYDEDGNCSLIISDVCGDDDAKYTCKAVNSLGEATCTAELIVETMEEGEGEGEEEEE

[5] = target: RAC-beta serine/threonine-protein kinase (Homo sapiens) (UniProt P31751); assay: Inhibition of human PKBbeta (120 to 481 residues) assessed as residual activity at 500 nM in presence of 33P-ATP by filter binding assay relative to control
[6] = target: Mitogen-activated protein kinase kinase kinase 11 (Homo sapiens) (UniProt Q16584); assay: Inhibition of human MLK3 (96 to 386 residues) assessed as residual activity at 500 nM in presence of 33P-ATP by filter binding assay relative to control
[7] = system: TGF-beta receptor type-1 (Homo sapiens), P36897 [T204D]; assay: Inhibition of human TGFbetaR1 T204D mutant (200 to 501 residues) assessed as residual activity at 500 nM in presence of 33P-ATP by filter binding assay relative to control
[8] = system: RAC-alpha serine/threonine-protein kinase (Homo sapiens), P31749 [S473D]; assay: Inhibition of human PKBalpha S473D mutant (118 to 480 residues) assessed as residual activity at 500 nM in presence of 33P-ATP by filter binding assay relative to control
Chain of RAC-alpha serine/threonine-protein kinase (Homo sapiens), P31749 [S473D] (P31749 whole entry S473D, the tested form may be a part): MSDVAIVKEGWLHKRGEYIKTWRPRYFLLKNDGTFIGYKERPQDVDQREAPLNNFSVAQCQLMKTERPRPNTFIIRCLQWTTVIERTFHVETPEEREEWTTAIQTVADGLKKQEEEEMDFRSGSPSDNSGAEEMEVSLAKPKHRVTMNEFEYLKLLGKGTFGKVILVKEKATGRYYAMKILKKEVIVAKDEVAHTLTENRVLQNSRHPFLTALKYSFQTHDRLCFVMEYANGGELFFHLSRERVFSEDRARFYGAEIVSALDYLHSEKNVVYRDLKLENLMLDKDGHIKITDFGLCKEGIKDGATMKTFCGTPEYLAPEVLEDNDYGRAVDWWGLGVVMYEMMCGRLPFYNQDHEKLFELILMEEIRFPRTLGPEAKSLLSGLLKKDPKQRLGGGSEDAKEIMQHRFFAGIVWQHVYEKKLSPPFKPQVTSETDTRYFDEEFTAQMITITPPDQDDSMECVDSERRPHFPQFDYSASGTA

[9] = target: Maternal embryonic leucine zipper kinase (Homo sapiens) (UniProt Q14680); assay: Inhibition of human MELK (2 to 651 residues) assessed as residual activity at 500 nM in presence of 33P-ATP by filter binding assay relative to control
[10] = target: Tyrosine-protein kinase CSK (Homo sapiens) (UniProt P41240); assay: Inhibition of human CSK (1 to 450 residues) assessed as residual activity at 500 nM in presence of 33P-ATP by filter binding assay relative to control
Chain of Tyrosine-protein kinase CSK (Homo sapiens) (P41240 2-450 limits assumed): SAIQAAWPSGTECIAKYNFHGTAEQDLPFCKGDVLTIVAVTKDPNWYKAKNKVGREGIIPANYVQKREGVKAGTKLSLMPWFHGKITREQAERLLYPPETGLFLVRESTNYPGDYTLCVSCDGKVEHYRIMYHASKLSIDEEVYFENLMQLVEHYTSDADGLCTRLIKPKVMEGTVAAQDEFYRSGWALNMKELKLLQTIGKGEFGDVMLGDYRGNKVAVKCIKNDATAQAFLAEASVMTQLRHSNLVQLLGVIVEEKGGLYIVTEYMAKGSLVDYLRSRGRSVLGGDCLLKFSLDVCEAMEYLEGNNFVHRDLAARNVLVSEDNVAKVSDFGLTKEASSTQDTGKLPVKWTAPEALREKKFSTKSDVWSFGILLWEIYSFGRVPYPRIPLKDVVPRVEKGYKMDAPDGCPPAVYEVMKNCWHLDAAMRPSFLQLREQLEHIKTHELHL

[11] = target: Mitogen-activated protein kinase 1 (Homo sapiens) (UniProt P28482); assay: Inhibition of human ERK2 (2 to 360 residues) assessed as residual activity at 500 nM in presence of 33P-ATP by filter binding assay relative to control
Chain of Mitogen-activated protein kinase 1 (Homo sapiens) (P28482 whole entry, the tested form may be a part): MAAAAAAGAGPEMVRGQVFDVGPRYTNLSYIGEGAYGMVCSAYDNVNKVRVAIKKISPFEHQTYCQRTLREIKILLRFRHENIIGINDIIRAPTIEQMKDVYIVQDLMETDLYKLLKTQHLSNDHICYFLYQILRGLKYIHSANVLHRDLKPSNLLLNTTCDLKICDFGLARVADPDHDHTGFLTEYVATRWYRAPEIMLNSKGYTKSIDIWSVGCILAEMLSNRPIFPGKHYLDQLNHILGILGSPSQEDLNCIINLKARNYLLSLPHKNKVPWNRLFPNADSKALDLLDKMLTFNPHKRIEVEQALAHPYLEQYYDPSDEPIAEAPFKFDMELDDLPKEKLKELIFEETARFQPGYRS

[12] = target: Serine/threonine-protein kinase Pink1, mitochondrial (Tribolium castaneum) (UniProt D6WMX4); assay: Inhibition of Tribolium castaneum PINK1 (1 to 570 residues) assessed as residual activity at 500 nM in presence of 33P-ATP by scintillation counting method relative to control
[13] = target: Mitogen-activated protein kinase kinase kinase 1 (Homo sapiens) (UniProt Q13233); assay: Inhibition of human MEKK1 (877 to 1563 residues) assessed as residual activity at 500 nM in presence of 33P-ATP by filter binding assay relative to control
[14] = target: Mitogen-activated protein kinase 7 (Homo sapiens) (UniProt Q13164); assay: Inhibition of human ERK5 (1 to 816 residues) assessed as residual activity at 500 nM in presence of 33P-ATP by filter binding assay relative to control
Chain of Mitogen-activated protein kinase 7 (Homo sapiens) (Q13164 2-816 limits assumed): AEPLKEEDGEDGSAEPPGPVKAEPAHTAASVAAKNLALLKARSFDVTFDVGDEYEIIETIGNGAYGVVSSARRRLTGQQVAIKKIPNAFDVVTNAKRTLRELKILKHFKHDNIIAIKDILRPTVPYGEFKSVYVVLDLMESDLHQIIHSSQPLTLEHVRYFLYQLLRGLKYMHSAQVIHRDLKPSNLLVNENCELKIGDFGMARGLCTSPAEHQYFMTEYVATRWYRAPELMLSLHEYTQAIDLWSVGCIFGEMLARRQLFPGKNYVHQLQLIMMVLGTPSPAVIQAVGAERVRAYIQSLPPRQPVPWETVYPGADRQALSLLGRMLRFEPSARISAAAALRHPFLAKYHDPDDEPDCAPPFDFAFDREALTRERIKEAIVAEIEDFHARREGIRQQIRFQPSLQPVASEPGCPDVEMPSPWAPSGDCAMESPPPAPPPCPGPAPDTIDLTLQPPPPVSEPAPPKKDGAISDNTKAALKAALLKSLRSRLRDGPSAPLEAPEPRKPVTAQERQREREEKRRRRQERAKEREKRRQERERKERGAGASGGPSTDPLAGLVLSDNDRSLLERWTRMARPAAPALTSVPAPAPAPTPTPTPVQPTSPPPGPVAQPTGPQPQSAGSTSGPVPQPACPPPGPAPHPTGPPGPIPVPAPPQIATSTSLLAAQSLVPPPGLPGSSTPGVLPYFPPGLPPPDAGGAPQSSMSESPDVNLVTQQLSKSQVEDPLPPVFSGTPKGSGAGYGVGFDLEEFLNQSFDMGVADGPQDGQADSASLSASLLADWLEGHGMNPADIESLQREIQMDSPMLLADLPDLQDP

[15] = target: Rho-associated protein kinase 2 (Homo sapiens) (UniProt O75116); assay: Inhibition of human ROCK2 (2 to 543 residues) assessed as residual activity at 500 nM in presence of 33P-ATP by filter binding assay relative to control
[16] = Ratio of EC50 for antiparasitic activity against Cryptosporidium parvum Iowa oocysts infected in human HCT8 cells to IC50 for recombinant Cryptosporidium parvum FIKK; assay type: functional, cell-based
[17] = target: Dual specificity testis-specific protein kinase 1 (Homo sapiens) (UniProt Q15569); assay: Inhibition of human TESK1 (1 to 345 residues) assessed as residual activity at 500 nM in presence of 33P-ATP by filter binding assay relative to control
[18] = target: Serine/threonine-protein kinase PLK1 (Homo sapiens) (UniProt P53350); assay: Inhibition of human PLK1 (1 to 603 residues) assessed as residual activity at 500 nM in presence of 33P-ATP by filter binding assay relative to control
[19] = target: MAP kinase-interacting serine/threonine-protein kinase 2 (Homo sapiens) (UniProt Q9HBH9); assay: Inhibition of human MNK2alpha (2 to 465 residues) assessed as residual activity at 500 nM in presence of 33P-ATP by filter binding assay relative to control
Chain of MAP kinase-interacting serine/threonine-protein kinase 2 (Homo sapiens) (Q9HBH9 whole entry, looked up, the tested form may be a part): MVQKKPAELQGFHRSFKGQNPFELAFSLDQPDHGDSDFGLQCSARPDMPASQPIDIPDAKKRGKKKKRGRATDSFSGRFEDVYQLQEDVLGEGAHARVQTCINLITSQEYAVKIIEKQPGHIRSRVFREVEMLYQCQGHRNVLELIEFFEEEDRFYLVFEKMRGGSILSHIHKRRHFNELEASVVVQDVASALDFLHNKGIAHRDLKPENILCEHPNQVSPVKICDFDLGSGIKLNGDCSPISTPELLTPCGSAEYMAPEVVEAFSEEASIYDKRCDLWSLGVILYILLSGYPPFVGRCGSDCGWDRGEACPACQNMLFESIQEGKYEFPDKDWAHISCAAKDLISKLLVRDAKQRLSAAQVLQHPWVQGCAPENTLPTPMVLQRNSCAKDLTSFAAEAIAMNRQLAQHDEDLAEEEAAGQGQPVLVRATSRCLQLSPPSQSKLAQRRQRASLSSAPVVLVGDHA

[20] = target: Mitogen-activated protein kinase kinase kinase kinase 2 (Homo sapiens) (UniProt Q12851); assay: Inhibition of human GCK (2 to 812 residues) assessed as residual activity at 500 nM in presence of 33P-ATP by filter binding assay relative to control
[21] = target: Casein kinase I isoform gamma-2 (Homo sapiens) (UniProt P78368); assay: Inhibition of human CK1gamma2 (1 to 415 residues) assessed as residual activity at 500 nM in presence of 33P-ATP by filter binding assay relative to control
[22] = target: Inhibitor of nuclear factor kappa-B kinase subunit epsilon (Homo sapiens) (UniProt Q14164); assay: Inhibition of human IKKepsilon (1 to 716 residues) assessed as residual activity at 500 nM in presence of 33P-ATP by filter binding assay relative to control
[23] = target: Serine/threonine-protein kinase 24 (Homo sapiens) (UniProt Q9Y6E0); assay: Inhibition of human MST3 (1 to 431 residues) assessed as residual activity at 500 nM in presence of 33P-ATP by filter binding assay relative to control
Chain of Serine/threonine-protein kinase 24 (Homo sapiens) (Q9Y6E0 whole entry, looked up, the tested form may be a part): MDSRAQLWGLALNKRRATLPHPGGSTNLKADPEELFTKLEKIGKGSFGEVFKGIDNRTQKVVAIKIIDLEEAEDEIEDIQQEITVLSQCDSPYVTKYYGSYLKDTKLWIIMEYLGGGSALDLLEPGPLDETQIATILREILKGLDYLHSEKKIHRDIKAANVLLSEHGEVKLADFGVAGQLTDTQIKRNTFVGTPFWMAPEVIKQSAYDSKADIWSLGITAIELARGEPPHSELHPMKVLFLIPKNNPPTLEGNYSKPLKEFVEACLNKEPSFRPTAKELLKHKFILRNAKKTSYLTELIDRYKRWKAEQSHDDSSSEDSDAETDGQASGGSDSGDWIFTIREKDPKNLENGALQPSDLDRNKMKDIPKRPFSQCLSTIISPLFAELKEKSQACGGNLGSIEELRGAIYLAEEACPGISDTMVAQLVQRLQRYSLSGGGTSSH

[24] = target: Homeodomain-interacting protein kinase 2 (Homo sapiens) (UniProt Q9H2X6); assay: Inhibition of human HIPK2 (165 to 564 residues) assessed as residual activity at 500 nM in presence of 33P-ATP by filter binding assay relative to control
[25] = target: Serine/threonine-protein kinase STK11 (Homo sapiens) (UniProt Q15831); assay: Inhibition of human LKB1 (1 to 433 residues) assessed as residual activity at 500 nM in presence of 33P-ATP by filter binding assay relative to control
[26] = target: Serine/threonine-protein kinase TAO1 (Homo sapiens) (UniProt Q7L7X3); assay: Inhibition of human TAO1 (1 to 356 residues) assessed as residual activity at 500 nM in presence of 33P-ATP by filter binding assay relative to control

Cc1cccc(-c2nc(N)sc2-c2ccc3ncccc3n2)c1 showed an Activity [1] of 105%, an Activity [2] of 106% and an Activity [3] of 104%. It also gave an Activity [4] of 104%, an Activity [5] of 127% and an Activity [6] of 101%. For the same compound, the Activity [7] was 14%, the Activity [8] was 115% and the Activity [9] was 91%. The Activity [10] was 99%, the Activity [11] was 80% and the Activity [12] was 119%. For the same compound, the Activity [13] was 119%, the Activity [14] was 100% and the Activity [15] was 112%. The Ratio [16] was 12800, the Activity [17] was 87% and the Activity [18] was 107%. For the same compound, the Activity [19] was 98%, the Activity [20] was 133% and the Activity [21] was 113%. The Activity [22] was 101%, the Activity [23] was 91% and the Activity [24] was 131%. It also gave an Activity [25] of 101% and an Activity [26] of 99%.
